Results taken from patent publication US7759345B2, “Antitumoral derivatives of ET-743” (priority 2001, dated 2010).

How the values were obtained:
HT-29 = test: Inhibition of cells growth by colorimetric assay (SRB), HT-29; assay type: cell-based
Outline: (§1)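 Sulforhodamine B protein-stain readout (490 nm) after 48 h drug exposure, with GI, TGI and LC parameters calculated from triplicate means. Cells seeded at 5×10^3 per well, allowed 18 h drug-free attachment; dose range 10 to 10^−8 μg/ml, vehicle DMSO/EtOH/PBS (0.5:0.5:99).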

tumor cell culture = test: Bioassays for antitumor screening, cell line not given; assay type: cell-based; details: cell line not stated
Source text: Bioassays for Antitumor Screening
The finality of these assays is to interrupt the growth of a “in vitro” tumor cell culture by means a continued exhibition of the cells to the sample to be testing.

A-498 = test: Inhibition of cells growth by colorimetric assay (SRB), A-498; assay type: cell-based
Outline: as §1

A-549 = test: Inhibition of cells growth by colorimetric assay (SRB), A-549; assay type: cell-based
Outline: as §1

MDA-MB-231 = test: Inhibition of cells growth by colorimetric assay (SRB), MDA-MB-231; assay type: cell-based
Outline: as §1

SW620 = test: Inhibition of cells growth by colorimetric assay (SRB), SW620; assay type: cell-based
Outline: as §1

SK-MEL-28 = test: Inhibition of cells growth by colorimetric assay (SRB), SK-MEL-28; assay type: cell-based
Outline: as §1

DU-145 = test: Inhibition of cells growth by colorimetric assay (SRB), DU-145; assay type: cell-based
Outline: as §1

MCF-7 = test: Inhibition of cells growth by colorimetric assay (SRB), MCF-7; assay type: cell-based
Outline: as §1

Source text for Heart: (§2) Toxicity was asssessed by the methods reported in Toxicology in Vitro, 15 (2001) 571-577, J. Luber Narod et al.: “Evaluation of the use of in vitro methodolodies as tools for screening new compounds for potential in vivo toxicity”.
Source text for Kidney: as §2
Source text for Liver: as §2
Source text for Myelo: as §2
Source text for Skeletal: as §2

`COc1cc2c(cc1OC(=O)OC(C)(C)C)CCN[C@]21CS[C@@H]2c3c(OC(=O)OC(C)(C)C)c(C)c4c(c3[C@H](COC1=O)N1C2[C@H]2c3c(cc(C)c(OC)c3OC(=O)OC(C)(C)C)C[C@@H]([C@@H]1O)N2C)OCO4` (stereo partly drawn) [Compound 174] was tested, and the GI50 (HT-29; Homo sapiens, HT-29, 48 h, SRB assay, 48 hours exposure, read-out: HT-29 GI50) was 1.96 nM, the LC50 (concentration for 50% cell killing) (HT-29; Homo sapiens, HT-29, 48 h, read-out: HT-29 LC50, SRB assay, 48 hours exposure) was 9.8 nM and the “HT-29 TGI” value (HT-29; SRB assay, 48 hours exposure) was 6.86E-09. The “Toxicity Data Liver” value (Liver) was 1.34E-08, the “Toxicity Data Skeletal” value (Skeletal) was 9.80E-07 and the “Toxicity Data Kidney” value (Kidney) was 1.24E-08. For the same compound, the “antitumor activity (in words)” value (tumor cell culture) was “very active (E-10)”, the LC50 (A-498; Homo sapiens, A498, 48 h, read-out: A-498 LC50) was 9.8 nM and the GI50 (A-498; Homo sapiens, A498, SRB assay, 48 hours exposure, read-out: A-498 GI50) was 1.96 nM. The “A-498 TGI” value (A-498; SRB assay, 48 hours exposure) was 3.92E-09, the GI50 (A-549; Homo sapiens, A549, 48 h, SRB assay, 48 hours exposure, read-out: A-549 GI50) was 0.98 nM and the LC50 (concentration for 50% cell killing) (A-549; Homo sapiens, A549, 48 h, read-out: A-549 LC50, SRB assay, 48 hours exposure) was 9.8 nM. The “A-549 TGI” value (A-549; SRB assay, 48 hours exposure) was 2.94E-09, the “Toxicity Data Heart” value (Heart) was 2.76E-08 and the CC50 (MDA-MB-231; Homo sapiens, MDA-MB-231, 48 h, read-out: MB-231 LC50) was 98 nM. For the same compound, the GI50 (MDA-MB-231; Homo sapiens, MDA-MB-231, SRB assay, 48 hours exposure, read-out: MB-231 GI50) was 0.98 nM, the “MB-231 TGI” value (MDA-MB-231; SRB assay, 48 hours exposure) was 5.88E-09 and the “Toxicity Data Myelo” value (Myelo) was 7.27E-08. For the same compound, the LC50 (SW620; Homo sapiens, SW-620, 48 h, read-out: SW-620 LC50) was 686 nM, the GI50 (SW620; Homo sapiens, SW-620, SRB assay, 48 hours exposure, read-out: SW-620 GI50) was 0.98 nM and the “SW-620 TGI” value (SW620; SRB assay, 48 hours exposure) was 6.86E-09. The GI50 (SK-MEL-28; Homo sapiens, SK-MEL-28, 48 h, SRB assay, 48 hours exposure, read-out: MEL-28 GI50) was 1.96 nM, the CC50 (SK-MEL-28; Homo sapiens, SK-MEL-28, 48 h, read-out: MEL-28 LC50, SRB assay, 48 hours exposure) was 9.8 nM and the “MEL-28 TGI” value (SK-MEL-28; SRB assay, 48 hours exposure) was 4.90E-09. For the same compound, the GI50 (DU-145; Homo sapiens, DU-145, 48 h, SRB assay, 48 hours exposure, read-out: DU-145 GI50) was 0.294 nM, the CC50 (DU-145; Homo sapiens, DU-145, 48 h, read-out: DU-145 LC50, SRB assay, 48 hours exposure) was 3.92 nM and the “DU-145 TGI” value (DU-145; SRB assay, 48 hours exposure) was 9.80E-10. The GI50 (MCF-7; Homo sapiens, MCF7, 48 h, read-out: MCF GI50) was 3.92 nM, the CC50 (MCF-7; Homo sapiens, MCF7, 48 h, read-out: MCF LC50) was 88.2 nM and the “MCF TGI” value (MCF-7; SRB assay, 48 hours exposure) was 1.96E-08.
